How the values were obtained:
[1] = target: MAO-A (amine oxidase [flavin-containing] A), Homo sapiens (UniProt P21397); experiment: Ratio of Kinact to KI of human MAOA
[2] = Inhibition of human MAOB; conditions: read-out: Kinact
[3] = target: MAO-B (amine oxidase [flavin-containing] B), Homo sapiens (UniProt P27338); experiment: Ratio of Kinact to KI of human MAOB
[4] = Inhibition of human MAOA; conditions: read-out: Kinact

Sequence of MAO-B (amine oxidase [flavin-containing] B), Homo sapiens (P27338 whole entry, looked up): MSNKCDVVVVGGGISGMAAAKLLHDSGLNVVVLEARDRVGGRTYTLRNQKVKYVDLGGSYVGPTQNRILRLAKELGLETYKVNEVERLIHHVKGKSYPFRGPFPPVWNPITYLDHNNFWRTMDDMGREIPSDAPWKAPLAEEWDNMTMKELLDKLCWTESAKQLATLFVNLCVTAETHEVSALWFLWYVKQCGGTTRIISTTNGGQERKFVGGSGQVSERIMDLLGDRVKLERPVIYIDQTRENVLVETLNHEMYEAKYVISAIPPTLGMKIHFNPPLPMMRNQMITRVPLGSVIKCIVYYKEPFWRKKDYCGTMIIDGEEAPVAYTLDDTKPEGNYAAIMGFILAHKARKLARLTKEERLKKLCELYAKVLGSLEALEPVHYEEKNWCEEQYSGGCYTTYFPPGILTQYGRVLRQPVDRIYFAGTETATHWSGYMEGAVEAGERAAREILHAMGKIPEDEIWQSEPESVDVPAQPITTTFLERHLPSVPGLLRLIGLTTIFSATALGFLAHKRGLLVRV
Sequence of MAO-A (amine oxidase [flavin-containing] A), Homo sapiens (P21397 whole entry, looked up): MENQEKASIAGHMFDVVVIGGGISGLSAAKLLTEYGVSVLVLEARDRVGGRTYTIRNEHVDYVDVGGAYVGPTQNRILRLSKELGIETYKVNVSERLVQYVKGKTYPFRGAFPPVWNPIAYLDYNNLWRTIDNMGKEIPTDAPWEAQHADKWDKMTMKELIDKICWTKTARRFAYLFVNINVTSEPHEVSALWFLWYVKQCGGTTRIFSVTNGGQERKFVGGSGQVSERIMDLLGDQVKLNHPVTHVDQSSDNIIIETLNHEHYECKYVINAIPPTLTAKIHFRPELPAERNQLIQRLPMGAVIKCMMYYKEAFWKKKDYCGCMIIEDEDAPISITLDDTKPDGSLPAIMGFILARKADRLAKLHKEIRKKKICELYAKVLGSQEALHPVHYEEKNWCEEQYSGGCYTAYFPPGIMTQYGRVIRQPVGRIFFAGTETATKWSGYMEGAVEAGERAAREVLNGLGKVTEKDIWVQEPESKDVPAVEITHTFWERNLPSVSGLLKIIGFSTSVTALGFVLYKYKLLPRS

For `N[C@@H]1C[C@H]1c1ccc(C(F)(F)F)cc1` (relative stereo), the kinact/KI [1] was 2860 M⁻¹ s⁻¹, the KI (inactivation) [2] was 29.8 µM and the kinact/KI [3] was 7510 M⁻¹ s⁻¹. The KI (inactivation) [4] was 7.7 µM.
In the case of `NC1CC1(c1ccccc1)c1ccccc1` (stereo not drawn), the kinact/KI [1] is reported as < 14 M⁻¹ s⁻¹ and the kinact/KI [3] is reported as < 1.5 M⁻¹ s⁻¹.
For `N[C@@H]1C[C@H]1c1ccsc1` (relative stereo), the kinact/KI [1] was < 18 M⁻¹ s⁻¹, the kinact/KI [3] was 22.3 M⁻¹ s⁻¹ and the KI (inactivation) [4] was 1550 µM.
`N[C@@H]1C[C@H]1c1cccc2ccccc12` (relative stereo) showed a kinact/KI [1] of 362 M⁻¹ s⁻¹, a KI (inactivation) [2] of 38.7 µM and a kinact/KI [3] of 4840 M⁻¹ s⁻¹. For the same molecule, the KI (inactivation) [4] was 9.8 µM.

Source: ChEMBL document CHEMBL1144791, “Facile synthesis of substituted trans-2-arylcyclopropylamine inhibitors of the human histone demethylase LSD1 and monoamine oxidases A and B” (Bioorg Med Chem Lett, 2008)
